From paper PMC9873282, “Design, synthesis and evaluation of quinoline-O-carbamate derivatives as multifunctional agents for the treatment of Alzheimer’s disease” (Journal of Enzyme Inhibition and Medicinal Chemistry, 2023)

Assay: Stability in artificial gastrointestinal fluids
Assay type: in vitro ADME
Conditions: 8 h incubation
Description: Compound 3f was selected to investigate the stabilities by artificial gastrointestinal conditions and (human and rat) liver microsomes.
• The artificial gastrointestinal fluids were prepared on the basis of the standard method described in China Pharmacopoeia (version 2015). The artificial gastric fluid consisted of HCl (0.045 mol/L) and pepsin (10 g/L), while the artificial intestinal fluid consisted of trypsin (10 g/L) and KH2PO4 (6.8 g/L), and the pH was adjusted to 6.8 with 0.1 mol/L NaOH. The blank gastric fluid and blank intestinal fluid was similar as described above without pepsin and trypsin. Compound 3f (1 mg/mL, n = 3) was incubated with artificial gastric fluid、blank gastric fluid 、artificial intestinal fluid and blank intestinal fluid at 37 ◦C, and 600 µL methanol was then added into the reagent to stop reaction at time of 0, 0.5, 1, 2, 3, 4, and 8 h. […] The data were processed by GraphPad Prism 8.0 software.
UPLC-MS/MS method: Targeted analytes were separated using a Agilent xbridge aq C18 column (4.6 mm × 250 mm, 5 µm, USA) at a flow rate of 0.4 ml/min. The mobile phase consisted of solvent A (deionised water with 0.1% formic acid) and solvent B (acetonitrile with 0.1% formic acid). The gradient elution program was as follows: 0–0.5 min (10% B); 0.5–2.5 min (10–98% B); 2.5–3.5 min (98% B); 3.5–3.6 min ([…]); 3.6–5.0 min (10% B). The autosampler temperature was maintained at 12 °C and the injection volume was set at 1 µL.
The mass spectrometer was operated in positive ion mode through multiple-reaction monitoring. The parameters of the mass spectrometer were as follows: capillary ionisation voltage of 3500 V: source gas temperature of 300 °C gas flow of 11 L/min.

CCN(CC)C(=O)Oc1cccc2ncccc12 [Compound 3f, Quinolin-5-yl diethylcarbamate]
remaining amount (artificial gastric fluid): 99.2%
remaining amount (artificial intestinal fluid): 107.7%
remaining amount (blank gastric fluid): 102.6%
remaining amount (blank intestinal fluid): 103.4%
